Reference: patent US12344610B2, “APOL1 inhibitors and methods of use” (Maze Therapeutics, Inc., priority 2022, dated 2025)
pEC50: −log10 of the molar value. Like-named read-outs stand apart in the source and are kept apart here.

Experiments:
Type in all cases: cell-based
Conditions in all cases: geometric mean of at least 2 assay runs, † = single assay run
[1] = system: HEK293 cells overexpressing APOL1 G2; experiment: APOL1 G2 HEK293 cell rescue assay (reversal of cell death caused by overexpression of APOL1)
Procedure, shortened: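 EC50 is the half-maximal effective concentration for reversing cell death driven by APOL1 G2 overexpression in HEK293 cells. Reported as geometric mean of at least 2 runs on separate days, each run averaging duplicate wells per plate; some values from a single run.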

[2] = system: Trypanosoma brucei Lister 427 VSG221 with APOL1 G0 recombinant protein; experiment: APOL1 G0 trypanosome cell rescue assay (Example B5)
Procedure, shortened: (§1)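 Compounds in duplicate 2-fold, 11-point series with 0.4% DMSO final. Next, tag-free mature APOL1 variant protein went in from a 2 μg/mL solution, then trypanosomes to 250 per well. Plates incubated 20 h humidified at 37° C, equilibrated to room temperature, and CellTiter-Glo added for luminescence.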

[3] = system: Trypanosoma brucei Lister 427 VSG221 with APOL1 G1 recombinant protein; experiment: APOL1 G1 trypanosome cell rescue assay (Example B5)
Procedure, shortened: as §1

[4] = system: Trypanosoma brucei Lister 427 VSG221 with APOL1 G2 recombinant protein; experiment: APOL1 G2 trypanosome cell rescue assay (Example B5)
Procedure, shortened: as §1

[5] = Homo sapiens, HEK293, HEK293 overexpressing APOL1 G2
[6] = Trypanosoma brucei, 20 h, read-out: APOL1 G0 Trypanosome Rescue EC50, Trypanosoma brucei Lister 427 VSG221 with APOL1 G0 recombinant protein, 20 hours, CellTiter-Glo
[7] = Trypanosoma brucei, 20 h, read-out: APOL1 G1 Trypanosome Rescue EC50, Trypanosoma brucei Lister 427 VSG221 with APOL1 G1 recombinant protein, 20 hours, CellTiter-Glo
[8] = Trypanosoma brucei, 20 h, read-out: APOL1 G2 Trypanosome Rescue EC50, Trypanosoma brucei Lister 427 VSG221 with APOL1 G2 recombinant protein, 20 hours, CellTiter-Glo
[9] = read-out: APOL1 G0 Trypanosome Rescue EC50, Trypanosoma brucei Lister 427 VSG221 with APOL1 G0 recombinant protein, 20 hours, CellTiter-Glo
[10] = read-out: APOL1 G1 Trypanosome Rescue EC50, Trypanosoma brucei Lister 427 VSG221 with APOL1 G1 recombinant protein, 20 hours, CellTiter-Glo
[11] = read-out: APOL1 G2 Trypanosome Rescue EC50, Trypanosoma brucei Lister 427 VSG221 with APOL1 G2 recombinant protein, 20 hours, CellTiter-Glo

Row | Structure (SMILES) | pEC50 [1, 5] | pEC50 [2, 6] | pEC50 [3, 7] | pEC50 [4, 8] | pEC50 ([1]; HEK293 overexpressing APOL1 G2) | pEC50 [2, 9] | pEC50 [3, 10] | pEC50 [4, 11]
1 | CNC(=O)N1CCc2cc(OCCN3CCC4(CC3)C(=O)Nc3ccc(Cl)cc34)ccc2C1 [Compound 245, 6-(2-{5-chloro-2-oxo-1,2-dihydrospiro[indole-3,4′-piperidin]-1′-yl}ethoxy)-N-methyl-1,2,3,4-tetrahydroisoquinoline-2-carboxamide] | 6.86 | 6.58 | 6.42 | 6.99 | – | – | – | –
2 | O=C1Nc2ccc(Cl)cc2C12CCN(CCOc1ccc(S(=O)(=O)C3(CO)CC3)nc1)CC2 [Compound 248, 5-chloro-1′-{2-[(6-{[1-(hydroxymethyl)cyclopropyl]sulfonyl}pyridin-3-yl)oxy]ethyl}-1,2-dihydrospiro[indole-3,4′-piperidin]-2-one] | 7.23 | 7.06 | 6.90 | 7.42 | – | – | – | –
3 | CS(=O)(=O)c1ccc(OCCN2CCC3(CC2)C(=O)Nc2ccc(Cl)cc23)cc1C(F)F [Compound 197, 5-chloro-1′-{2-[3-(difluoromethyl)-4-methanesulfonylphenoxy]ethyl}-1,2-dihydrospiro[indole-3,4′-piperidin]-2-one] | 7.49 | 7.52 | 6.71 | 7.97 | – | – | – | –
4 | CC(O)c1ncc(OCCN2CCC3(CC2)C(=O)Nc2ccc(Cl)cc23)cc1C(F)(F)F (single isomer, unassigned) [Compound 292, 5-chloro-1′-[2-({6-[(1S) or (1R)-1-hydroxyethyl]-5-(trifluoromethyl)pyridin-3-yl}oxy)ethyl]-1,2-dihydrospiro[indole-3,4′-piperidin]-2-one] | – | – | – | – | 7.63 | 7.50 | 7.40 | 7.97
5 | CC(O)c1ncc(OCCN2CCC3(CC2)C(=O)Nc2ccc(C(F)F)cc23)cc1C(F)(F)F (single isomer, unassigned) [Compound 287, 5-(difluoromethyl)-1′-[2-({6-[(1S) or (1R)-1-hydroxyethyl]-5-(trifluoromethyl)pyridin-3-yl}oxy)ethyl]-1,2-dihydrospiro[indole-3,4′-piperidin]-2-one] | 7.47 | 7.42 | 7.30 | 7.86 | – | – | – | –
6 | NC1CN(C(=O)c2ccc(OCCN3CCC4(CC3)C(=O)Nc3ccc(Cl)cc34)cc2F)C1 [Compound 236, 1′-{2-[4-(3-aminoazetidine-1-carbonyl)-3-fluorophenoxy]ethyl}-5-chloro-1,2-dihydrospiro[indole-3,4′-piperidin]-2-one] | 7.35 | 6.12 | 6.06 | 6.40 | – | – | – | –
7 | N#Cc1ccc2c(c1)C1(CCN(CCOc3ccc(C(N)=O)c(C(F)F)c3)CC1)C(=O)N2 [Compound 250, 4-(2-{5-cyano-2-oxo-1,2-dihydrospiro[indole-3,4′-piperidin]-1′-yl}ethoxy)-2-(difluoromethyl)benzamide] | 7.31 | 6.35 | 6.17 | 6.71 | – | – | – | –
8 | CNC(=O)c1ccc(OCCN2CCC3(CC2)C(=O)Nc2ccc(Cl)cc23)cc1F [Compound 229, 4-(2-{5-chloro-2-oxo-1,2-dihydrospiro[indole-3,4′-piperidin]-1′-yl}ethoxy)-2-fluoro-N-methylbenzamide] | 6.89 | 6.38 | 6.11 | 6.73 | – | – | – | –
9 | O=C1Nc2ccc(Cl)cc2C12CCN(CCOc1cnc(N3CC(O)C3)nc1)CC2 [Compound 301, 5-chloro-1′-(2-{[2-(3-hydroxyazetidin-1-yl)pyrimidin-5-yl]oxy}ethyl)-1,2-dihydrospiro[indole-3,4′-piperidin]-2-one] | 7.07 | 6.49 | 6.35 | 6.87 | – | – | – | –
10 | NC(=O)c1ccc(OCCN2CCC3(CC2)C(=O)Nc2ccc(Cl)cc23)cc1C(F)F [Compound 249, 4-(2-{5-chloro-2-oxo-1,2-dihydrospiro[indole-3,4′-piperidin]-1′-yl}ethoxy)-2-(difluoromethyl)benzamide] | 7.57 | 7.27 | 7.13 | 7.66 | – | – | – | –
11 | C[C@@H](COc1ccc2c(cnn2C)c1)N1CCC2(CC1)C(=O)Nc1ccc(Cl)cc12 (single isomer, unassigned) [Compound 211] | 6.86 | 6.32 | 6.28 | 6.80 | – | – | – | –
12 | CC(=O)N(C)CCS(=O)(=O)c1ccc(OCCN2CCC3(CC2)C(=O)Nc2ccc(Cl)cc23)cc1 [Compound 193, N-{2-[4-(2-{5-chloro-2-oxo-1,2-dihydrosiro[indole-3,4′-piperidin]-1′-yl}ethoxy)benzenesulfonyl]ethyl}-N-methylacetamide] | 6.81 | 6.70 | 6.54 | 7.15 | – | – | – | –
13 | CC(O)c1ncc(OCCN2CCC3(CC2)C(=O)Nc2ccc(Cl)cc23)cn1 (single isomer, unassigned) [Compound 286, 5-chloro-1′-[2-({2-[(1R) or (1S)-1-hydroxyethyl]pyrimidin-5-yl}oxy)ethyl]-1,2-dihydrospiro[indole-3,4′-piperidin]-2-one] | – | – | – | – | 6.74 | 6.30 | 6.20 | 6.76
14 | O=C(c1ccc(OCCN2CCC3(CC2)C(=O)Nc2ccc(Cl)cc23)cc1F)N1CCS(=O)(=O)CC1 [Compound 232, 4-[4-(2-{5-chloro-2-oxo-1,2-dihydrospiro[indole-3,4′-piperidin]-1′-yl}ethoxy)-2-fluorobenzoyl]-1λ^6-thiomorpholine-1,1-dione] | 7.41 | 7.01 | 6.80 | 7.38 | – | – | – | –
15 | CN(C)C(=O)C1(S(=O)(=O)c2ccc(OCCN3CCC4(CC3)C(=O)Nc3ccc(Cl)cc34)cc2)CC1 [Compound 227, 1-[4-(2-{5-chloro-2-oxo-1,2-dihydrospiro[indole-3,4′-piperidin]-1′-yl}ethoxy)benzenesulfonyl]-N,N-dimethylcyclopropane-1-carboxamide] | 7.33 | 6.85 | 6.61 | 7.21 | – | – | – | –
16 | CC1(O)CN(c2nccc3cc(OCCN4CCC5(CC4)C(=O)Nc4ccc(Cl)cc45)cnc23)C1 [Compound 306, 5-chloro-1′-(2-{[8-(3-hydroxy-3-methylazetidin-1-yl)-1,7-naphthyridin-3-yl]oxy}ethyl)-1,2-dihydrospiro[indole-3,4′-piperidin]-2-one] | 6.96 | 7.43 | 7.29 | 7.82 | – | – | – | –
17 | CS(=O)(=O)c1ccc(OCCN2CCC3(CC2)C(=O)N(CCO)c2ccc(Br)cc23)cc1 [Compound 24, 5-bromo-1-(2-hydroxyethyl)-1′-[2-(4-methanesulfonylphenoxy)ethyl]-1,2-dihydrospiro[indole-3,4′-piperidin]-2-one] | 6.62 | 6.29 | 6.12 | 6.79 | – | – | – | –
18 | N#Cc1ccc2c(c1)C1(CCN(CCOc3ccc(C(N)=O)c(F)c3)CC1)C(=O)N2 [Compound 238, 4-(2-{5-cyano-2-oxo-1,2-dihydrospiro[indole-3,4′-piperidin]-1′-yl}ethoxy)-2-fluorobenzamide] | 7.07 | 5.80 | < 5.40 | 6.12 | – | – | – | –
19 | CN1C(=O)C2(CCN(CCOc3ccc(C4(S(C)(=O)=O)CC(O)C4)cc3)CC2)c2cc(C(F)F)ccc21 (single isomer, unassigned) [Compound 278, 5-(difluoromethyl)-1-methyl-1′-(2-{4-[(cis) or (trans)-3-hydroxy-1-methanesulfonylcyclobutyl]phenoxy}ethyl)-1,2-dihydrospiro[indole-3,4′-piperidin]-2-one] | – | 6.94 | – | – | 7.64 | – | 6.95 | 7.59
20 | Cc1n[nH]cc1-c1ccc(OCCN2CCC3(CC2)C(=O)Nc2ccc(Cl)cc23)cc1 [Compound 244, 5-chloro-1′-{2-[4-(5-methyl-1H-pyrazol-4-yl)phenoxy]ethyl}-1,2-dihydrospiro[indole-3,4′-piperidin]-2-one] | 7.15 | 6.85 | 6.82 | 7.31 | – | – | – | –
21 | COCCN1C(=O)C2(CCN(CCOc3ccc(S(C)(=O)=O)cc3)CC2)c2cc(Cl)ccc21 [Compound 20, 5-chloro-1′-[2-(4-methanesulfonylphenoxy)ethyl]-1-(2-methoxyethyl)-1,2-dihydrospiro[indole-3,4′-piperidin]-2-one] | 6.53 | 6.10 | 6.02 | 6.58 | – | – | – | –
